{"source": "patent US5998376A", "about": "“Substance P treatment for immunostimulation” (priority 1998, dated 1999)", "key": {"[1]": {"system": "immune system organs (spleen, lymph nodes and thymus)", "test": "Organ Weight and Total Cell Recovery, JP-8 exposed mice", "type": "in vivo, C57B16 mice", "set-up": "Spleen Weight / Thymus Weight: unit not given here", "method": "(§1) At 24 hours after the last exposure, the animals were sacrificed and the effects of exposure on the immune system examined. Immune organs (spleen, thymus, blood, lymph nodes and bone marrow) were recovered and analyzed for effects on organ weight, total cell numbers, immune cell populations (by differentials), and lymphocyte subpopulations (by flow cytometry). Assays were also performed to examine the effects of exposure on immune function. […] Similar effects on immune cell subpopulations were also observed in lymph nodes. In the thymus it appeared that the immature CD4^+ CD8^+ cells were differentially lost due to exposure. […] However, these effects are prevented or ameliorated by treatment of the animals with Substance P.\nOrgan Weight and Total Cell Recovery: For each of the immune system organs (spleen, lymph nodes and thymus) the wet weight is determined after removal using a microbalance. After processing of the organs into single cell suspensions the cell numbers and viabilities are determined using trypan blue staining. Histochemical differentials are performed at this time. Cell numbers and viabilities are again determined after centrifugation of the cell suspensions through density gradients to obtain mononuclear cells."}, "[2]": {"system": "lymphocyte subpopulations", "test": "Flow cytometric analyses (FACS) of immune organs, JP-8 exposed mice", "type": "in vivo, C57B16 mice", "method": "as §1\nFlow cytometric analyses (FACS): One- and two-color FACS analyses are performed using a Becton-Dickinson FACStar Plus flow cytometer. Cells are stained with the indicated monoclonal antibodies according to standard procedures (Harris et al., id). Cells alone and cells reacted with conjugated isotype control, irrelevant mAbs are used as controls. Data is presented as the percentage of cells staining positive for each individual mAb."}, "[3]": {"conditions": "JP-8 dose 0 + SP or antagonist aerosol"}, "[4]": {"conditions": "JP-8 dose 1000 + SP or antagonist aerosol"}, "[5]": {"conditions": "JP-8 dose 1000 + nSP (1 nanomolar substance P)"}, "[6]": {"conditions": "dose printed 100 + nSP (1 nanomolar substance P)"}}, "data": [{"substance": "Substance P [SP]", "values": [{"measurement": "BM Cell Number", "setting": "[1]; [3]", "value": 9}, {"measurement": "Spleen Cell Number", "setting": "[1]; [3]", "value": 30}, {"measurement": "Spleen Weight", "setting": "[1]; [3]", "value": 0.10}, {"measurement": "Thymus Cell Number", "setting": "[1]; [3]", "value": 18}, {"measurement": "Thymus Weight", "setting": "[1]; [3]", "value": 0.04}, {"measurement": "BM Cell Number", "setting": "[1]; JP-8 dose 250 + SP aerosol", "value": 23}, {"measurement": "Spleen Cell Number", "setting": "[1]; JP-8 dose 250 + SP aerosol", "value": 40}, {"measurement": "Spleen Weight", "setting": "[1]; JP-8 dose 250 + SP aerosol", "value": 0.16}, {"measurement": "Thymus Cell Number", "setting": "[1]; JP-8 dose 250 + SP aerosol", "value": 20}, {"measurement": "Thymus Weight", "setting": "[1]; JP-8 dose 250 + SP aerosol", "value": 0.06}, {"measurement": "BM Cell Number", "setting": "[1]; [4]", "value": 21}, {"measurement": "LN Cell Number", "setting": "[1]; [4]", "value": 5.0}, {"measurement": "Spleen Cell Number", "setting": "[1]; [4]", "value": 72}, {"measurement": "Spleen Weight", "setting": "[1]; [4]", "value": 0.14}, {"measurement": "Thymus Cell Number", "setting": "[1]; [4]", "value": 78}, {"measurement": "Thymus Weight", "setting": "[1]; [4]", "value": 0.11}, {"measurement": "BM Cell Number", "setting": "[1]; [5]", "value": 31}, {"measurement": "Thymus Cell Number", "setting": "[1]; [5]", "value": 78}, {"measurement": "Thymus Weight", "setting": "[1]; [5]", "value": 0.04}, {"measurement": "BM Cell Number", "setting": "[1]; JP-8 dose 2500 + SP aerosol", "value": 19}, {"measurement": "LN Cell Number", "setting": "[1]; JP-8 dose 2500 + SP aerosol", "value": 5.0}, {"measurement": "Spleen Cell Number", "setting": "[1]; JP-8 dose 2500 + SP aerosol", "value": 87}, {"measurement": "Spleen Weight", "setting": "[1]; JP-8 dose 2500 + SP aerosol", "value": 0.10}, {"measurement": "Thymus Cell Number", "setting": "[1]; JP-8 dose 2500 + SP aerosol", "value": 96}, {"measurement": "Thymus Weight", "setting": "[1]; JP-8 dose 2500 + SP aerosol", "value": 0.08}, {"measurement": "Spleen Cell Number", "setting": "[1]; [6]", "value": 58}, {"measurement": "Spleen Weight", "setting": "[1]; [6]", "value": 0.11}, {"measurement": "BM CD3, cells staining positive", "setting": "[2]; [3]", "value": 12, "unit": "%"}, {"measurement": "BM CD4, cells staining positive", "setting": "[2]; [3]", "value": 11, "unit": "%"}, {"measurement": "BM CD8, cells staining positive", "setting": "[2]; [3]", "value": 1, "unit": "%"}, {"measurement": "BM CD45, cells staining positive", "setting": "[2]; [3]", "value": 48, "unit": "%"}, {"measurement": "Spleen CD3, cells staining positive", "setting": "[2]; [3]", "value": 42, "unit": "%"}, {"measurement": "Spleen CD4, cells staining positive", "setting": "[2]; [3]", "value": 26, "unit": "%"}, {"measurement": "Spleen CD8, cells staining positive", "setting": "[2]; [3]", "value": 11, "unit": "%"}, {"measurement": "Spleen CD45, cells staining positive", "setting": "[2]; [3]", "value": 23, "unit": "%"}, {"measurement": "Spleen MAC1, cells staining positive", "setting": "[2]; [3]", "value": 1, "unit": "%"}, {"measurement": "Thymus CD3, cells staining positive", "setting": "[2]; [3]", "value": 10, "unit": "%"}, {"measurement": "Thymus DN, cells staining positive", "setting": "[2]; [3]", "value": 7, "unit": "%"}, {"measurement": "Thymus DP, cells staining positive", "setting": "[2]; [3]", "value": 84, "unit": "%"}, {"measurement": "Thymus SP4, cells staining positive", "setting": "[2]; [3]", "value": 6, "unit": "%"}, {"measurement": "Thymus SP8, cells staining positive", "setting": "[2]; [3]", "value": 2, "unit": "%"}, {"measurement": "BM CD3, cells staining positive", "setting": "[2]; JP-8 dose 250 + SP aerosol", "value": 13, "unit": "%"}, {"measurement": "BM CD4, cells staining positive", "setting": "[2]; JP-8 dose 250 + SP aerosol", "value": 10, "unit": "%"}, {"measurement": "BM CD8, cells staining positive", "setting": "[2]; JP-8 dose 250 + SP aerosol", "value": 3, "unit": "%"}, {"measurement": "BM CD45, cells staining positive", "setting": "[2]; JP-8 dose 250 + SP aerosol", "value": 48, "unit": "%"}, {"measurement": "BM MAC1, cells staining positive", "setting": "[2]; JP-8 dose 250 + SP aerosol", "value": 10, "unit": "%"}, {"measurement": "LN CD3, cells staining positive", "setting": "[2]; JP-8 dose 250 + SP aerosol", "value": 85, "unit": "%"}, {"measurement": "LN CD4, cells staining positive", "setting": "[2]; JP-8 dose 250 + SP aerosol", "value": 48, "unit": "%"}, {"measurement": "LN CD8, cells staining positive", "setting": "[2]; JP-8 dose 250 + SP aerosol", "value": 12, "unit": "%"}, {"measurement": "LN CD45, cells staining positive", "setting": "[2]; JP-8 dose 250 + SP aerosol", "value": 13, "unit": "%"}, {"measurement": "LN MAC1, cells staining positive", "setting": "[2]; JP-8 dose 250 + SP aerosol", "value": 1, "unit": "%"}, {"measurement": "PBL CD3, cells staining positive", "setting": "[2]; JP-8 dose 250 + SP aerosol", "value": 59, "unit": "%"}, {"measurement": "PBL CD4, cells staining positive", "setting": "[2]; JP-8 dose 250 + SP aerosol", "value": 15, "unit": "%"}, {"measurement": "PBL CD8, cells staining positive", "setting": "[2]; JP-8 dose 250 + SP aerosol", "value": 6, "unit": "%"}, {"measurement": "PBL CD45, cells staining positive", "setting": "[2]; JP-8 dose 250 + SP aerosol", "value": 16, "unit": "%"}, {"measurement": "PBL MAC1, cells staining positive", "setting": "[2]; JP-8 dose 250 + SP aerosol", "value": 1, "unit": "%"}, {"measurement": "Spleen CD3, cells staining positive", "setting": "[2]; JP-8 dose 250 + SP aerosol", "value": 62, "unit": "%"}, {"measurement": "Spleen CD4, cells staining positive", "setting": "[2]; JP-8 dose 250 + SP aerosol", "value": 27, "unit": "%"}, {"measurement": "Spleen CD8, cells staining positive", "setting": "[2]; JP-8 dose 250 + SP aerosol", "value": 3, "unit": "%"}, {"measurement": "Spleen CD45, cells staining positive", "setting": "[2]; JP-8 dose 250 + SP aerosol", "value": 21, "unit": "%"}, {"measurement": "Spleen MAC1, cells staining positive", "setting": "[2]; JP-8 dose 250 + SP aerosol", "value": 1, "unit": "%"}, {"measurement": "Thymus CD3, cells staining positive", "setting": "[2]; JP-8 dose 250 + SP aerosol", "value": 24, "unit": "%"}, {"measurement": "Thymus DN, cells staining positive", "setting": "[2]; JP-8 dose 250 + SP aerosol", "value": 5, "unit": "%"}, {"measurement": "Thymus DP, cells staining positive", "setting": "[2]; JP-8 dose 250 + SP aerosol", "value": 68, "unit": "%"}, {"measurement": "Thymus SP4, cells staining positive", "setting": "[2]; JP-8 dose 250 + SP aerosol", "value": 22, "unit": "%"}, {"measurement": "Thymus SP8, cells staining positive", "setting": "[2]; JP-8 dose 250 + SP aerosol", "value": 5, "unit": "%"}]}]}
